This is an account of results in patent US20020052316A1, “Bax-mediated apoptosis modulating reagents and methods” (priority 1998, published 2002).

One test has as its system COS-7 and CHO cells. Description: Immunofluorescence microscopy with anti-HA antibody of transfected cells. Format: cell-based. The settings on record: 24 hours. From the text:
Thus, the enhanced cytotoxicity of HA-BAXΔART compared to HA-BAX in vivo correlates with inhibition of BAX membrane integration by the ART domain in vitro.

The subject of test [1] is intact mitochondria isolated from rat heart. Description: Mitochondrial protein targeting in vitro (35S-labelled reticulocyte lysate translation products, alkali-resistant insertion). The class given is biochemical. Set-up: BAX targeting supported by apoptotic high speed cytosol / mitochondrial membrane insertion of BAX with additional cytochrome c: dose or concentration left out as unconfirmed. The text has this:
To examine targeting of BAX into mitochondria in vitro, we employed the ^35S-labelled transcription-translation product of BAX cDNA in rabbit reticulocyte lysate combined with intact mitochondria isolated from rat heart. This is a well documented system that faithfully reflects in vivo import of diverse mitochondrial proteins, including the insertion of integral proteins into the mitochondrial outer membrane (Li and Shore, Science 256:1815-1817, 1992; McBride et al., J. Cell Biol. 119:1451-1457, 1992).
The results of our investigation as to whether or not apoptotic cell extract supports BAX targeting to mitochondria in vitro are presented in FIGS. 3A-3D. Briefly, in the experiments were conducted as follows. In FIG. 3A, ^35S-labeled transcription-translation products of BAX cDNA in rabbit reticulocyte lysate (BAX and BAXΔART) were incubated with purified, intact mitochondria from rat heart in a standard protein import reaction supplemented with 1 mM dATP (FIG. 3A, lanes 3, 4, 6, and 7) or 1 mM dATP and […] apoptotic cytosol protein (Extract) (FIG. 3A, lanes 4 and 7), in a volume of […]. At the end of the reaction, mitochondria were recovered by centrifugation and the pellets analyzed by SDS PAGE and fluorography either directly or after extraction with […], pH 11.5 (Alkali) (FIG. 3A, lanes 5-7).
The heart of one male Sprague Dawley rat (approximately 250 grams) was placed in approximately 100 ml HIM buffer (0.2% w/v BSA, 200 mM mannitol, 70 mM sucrose, 10 mM HEPES-KOH, 1 mM EGTA, pH 7.5) on ice, squeezed several times to force out blood, and transferred to 7.5 ml HIM in a 15-ml corex tube. All subsequent steps were conducted at 4° C. The heart was homogenized with a Polytron homogenizer (Brinkmann Instruments Inc., Westbury, N.Y.) operating for 1 second at setting 6.5. Nuclei and unbroken cells were pelleted at 1800 rpm for 10 min. in a Sorvall SS34 rotor. The supernatant was centrifuged for 10 min. at 7000 rpm. The resulting pellet was resuspended in HIM (minus BSA), centrifuged at 1800 rpm and the mitochondria were collected at 7000 rpm. The mitochondrial pellet was resuspended in cMRM (250 mM sucrose, 10 mM HEPES-KOH, 1 mM ATP, 5 mM Na Succinate, 0.08 mM ADP, 2 mM K2HPO4, pH 7.5) at a concentration of 1 mg of mitochondrial protein per ml, and adjusted to 1 mM dithiothreitol just before use.
cDNAs were transcribed and translated in the presence of ^35S-methionine in a cell-free rabbit reticulocyte lysate system (Promega Corp., Madison, Wis.) according to the manufacturer's directions. For a standard mitochondrial protein import reaction, 5 μl of translation reaction was incubated with 20 μl of Buffer A (20 mM HEPES-KOH, 10 mM KCl, 2.5 mM MgCl2, 1 mM EDTA, 1 mM EGTA, 1 mM dithiothreitol, pH 7.5) and 25 μl mitochondria or mitoplasts in cMRM (1 mg protein / ml) at 30° C or 37° C. for 30 min. to 2 hours. The import reaction was then layered on a 500 μl cushion of 1×MRM (250 mM sucrose, 10 mM HEPES-KOH, pH 7.5) and centrifuged for 4 min. at top speed in a microfuge at 4° C. For alkali extraction, the mitochondrial pellet was resuspended (0.25 mg protein / ml) in freshly prepared 0.1 M Na2CO3, pH 11.5, and incubated for 30 min. on ice. The membranes were then pelleted in an airfuge (commercially available from Beckman Instruments Canada Inc., Montreal, PQ, Canada) operating for 10 min. at 30 psi. The pellet was analyzed by SDS-PAGE and fluorography. […]

In test [2] the test system is caspases of KB apoptotic cell extract (24 kDa PARP cleavage product). The test is described as follows: Poly(ADP ribosyl) polymerase (PARP) cleavage by KB apoptotic cell extract. The class given is biochemical, human. More on the design: ability of the extract to drive PARP cleavage: dose or concentration left out as unconfirmed. As to the method: In FIG. 3C, ^35S-labeled transcription-translation product of PARP cDNA in reticulocyte lysate (5% by volume) was incubated with (FIG. 3C, lanes 2 and 3) or without (FIG. 3C, lane 1) […] apoptotic cytosol protein in a total volume of […], in the presence (FIG. 3C, lane 3) or absence (FIG. 3C, lanes 1 and 2) of 1 mM dATP, and equivalent portions analyzed for the appearance of the 24 kDa cleavage product of poly(ADP ribosyl) polymerase (24 K PARP) by 12% SDS PAGE and fluorography.
Extract was prepared at 4° C. according to the procedure of Liu et al. (supra) with some minor modifications. Briefly, human KB epithelial cells were harvested in PBS containing 1.3 mM Na citrate and 0.6 mM EDTA. The cell pellet was washed in Buffer A/ext (50 mM PIPES, 50 mM KCl, 5 mM EGTA, 2 mM MgCl2, 1 mM dithiothreitol, 20 μM cytochalasin B, pH 7.4), then resuspended in an equal volume of Buffer A/ext. The cells were disrupted by 5 cycles of freeze-thaw interspersed by 5 strokes with a Wheaton glass homogenizer fitted with a B pestle, and centrifuged at […] for 1 hour in a Beckman Ti75 rotor. The resulting supernatant contained 10 mg protein / ml. […]

The test system of another test is FL5.12 cells. Description: BAX integration into mitochondrial membrane of FL5.12 cells after IL-3 withdrawal (alkali extraction, anti-BAX Western blot). Format: cell-based. The settings on record: FL5.12 cells deprived of IL-3 for 12 hours, 50 mM zVAD-fmk. As to the method:
In the absence of a death signal during apoptosis of a cell, BAX is found free in the cytosol of the cell or is peripherally associated with endocellular membrane surfaces. We performed a Western blotting analysis of mitochondrial membranes from FL5.12 cells, immunoblotting anti-BAX antibodies (antibodies commercially available from, for example, Santa Cruz Biotech., Santa Cruz, Calif.; FIG. 1). Briefly, the mitochondrial fraction was prepared from FL5.12 cells maintained in IL-3 (FIG. 1, lanes 1, 2, 5, and 6) or deprived of IL-3 for 12 hours (FIG. 1, lanes 3, 4, 7, and 8), in the absence (FIG. 1, lanes 1, 3, 5, and 7) or presence (FIG. 1, lanes 2, 4, 6, and 8) of […] zVAD-fmk for 12 hours by centrifuging at 200,000×g for 45 min. to yield supernatant and pellet fractions (the pellet fraction contains the mitochondrial membranes). The mitochondrial fractions were analyzed either directly (FIG. 1, lanes 1-4) or following extraction with 0.1 M Na2CO3, pH 11.5 (FIG. 1, lanes 5-8).
Cells were collected, washed twice with phosphate buffered saline, suspended in 2 ml HIM buffer (0.2% w/v BSA, 200 mM mannitol, 70 mM sucrose, 10 mM HEPES-KOH, 1 mM EGTA, pH 7.5), and subjected to homogenization with a Polytron homogenizer (Brinkmann Instruments Inc., Westbury, N.Y.) for 4 bursts of 10 seconds each at a setting of 6.5. All subsequent steps were conducted at 4° C. […]
(In general: Immunoblotting shows a protein as a band on a membrane.)

[3] abbreviates: zVAD-fmk added before dATP and incubation at 37° C.
Where [4] appears, read: extract depleted of cytochrome c by immunoadsorption.

Residues, ends and D or L forms follow the SMILES beside them. *: point of attachment. Cbz = O=C(OCc1ccccc1)*; CH2F = FC*

For the compound “HA-BAX: hemagglutinin epitope tagged BAX expressed by transfection”, the “cells expressing the HA-tagged protein” value in the test with COS-7 and CHO cells was determined as 7.5%.
Take “BAX: full length murine BAX proapoptotic protein, translated in rabbit reticulocyte lysate”: the “mitochondrial targeting / membrane integration in vitro” value in test [1] (absence of apoptotic cell extract, resistance to extraction at alkaline pH) is recorded as “failed to target mitochondria”.
With `COC(=O)C[C@H](NC(=O)[C@H](C)NC(=O)[C@@H](NC(=O)OCc1ccccc1)C(C)C)C(=O)CF` [zVAD-fmk, reference compound] (Cbz-Val-Ala-Asp(OMe)-CH2F), in test [2] (setting [3]), the “ability of the extract to drive PARP cleavage” value was “abolished”. Besides, the “BAX integration into mitochondrial membrane in response to IL-3 withdrawal” value with FL5.12 cells (alkaline-resistant BAX) is on record as “partly blocked”. In addition, the “recovery of total BAX associated with mitochondria” value in the test with FL5.12 cells (no alkali extraction) is on record as “did not significantly influence”. For the same compound, the “BAX targeting supported by apoptotic high speed cytosol” value in test [1] (setting [3]) is “effectively inhibit”.
For “cytochrome c: cytochrome c protein added to apoptotic cell extract or reticulocyte lysate”, in test [2] (setting [4]), the “PARP cleavage after add-back to cytochrome c depleted extract” value was “re-instated”. Besides, the “mitochondrial membrane insertion of BAX with additional cytochrome c” value in test [1] (cytochrome c added to apoptotic cytosol) is reported as “No improvement”. Moreover, in test [1] (setting [4]), the “BAX targeting after add-back to cytochrome c depleted extract” value is “re-instated”. For the same compound, in test [1] (reticulocyte lysate translation mixtures, no extract), the “BAX targeting with cytochrome c alone” value is listed as “failed to stimulate”.
